The text below walks through data of patent US20240207265A1, “TREATMENT OF CNS DISEASES WITH sGC STIMULATORS” (Tisento Therapeutics Inc., priority 2021, published 2024).

A value given as a limit tells only on which side of the number the result lay.

Data set [1] has as its system sGC. Kind of data set: cGMP neuronal cell-based assay (rat primary neurons). The conditions noted are these: rat primary hippocampal neurons, DETA-NO 10 μM or 30 μM, cGMP by LC-MS/MS; read-out: sGC Neuron EC50. How it is done: Rat primary neurons were isolated from fetuses of 18-day pregnant Sprague-Dawley females. The fetuses were collected in Hanks' balanced salt solution (HBSS) and brains were rapidly removed. The cerebral hippocampi were isolated and mechanically fragmented. Further tissue digestion was performed with 0.25% (wt/vol) trypsin solution in HBSS without Ca2+ and Mg2+ for 15 min at 37° C. After trypsination, cells were washed and resuspended in neurobasal medium supplemented with 0.5 mM L-glutamine, 12.5 uM glutamic acid, 2% B-27 and 100 U/mL penicillin, and 100 μg/mL streptomycin. Cells were plated at a density of 26×10^3 or 3×10^4 or 4×10^4 cells/well in a poly-D-lysine coated 384-well flat clear-bottom plate (Corning Cat No 354662). Cells were incubated 6-7 days at 37° C. in a humidified chamber with 5% CO2. Media was removed and cells were washed 1× with HBSS containing Ca2+ and Mg2+, and replaced with 40 uL HBSS containing 0.5 mM IBMX, and incubated for 15 minutes at 37° C. 10 uL of a 5× stock of test compounds with diethylenetriamine NONOate (DETA-NO) was added. Final concentration of DETA-NO was either 10 μM or 30 μM. Cells were incubated for 20 min at 37° C. Medium was removed, 50 uL of ice-cold 10% acetic acid was added, and incubated for 60 minutes at 4° C. Following centrifugation at 4° C. for 5 minutes at 1000×g to pellet cell debris, the supernatant was aspirated to a clean plate and the samples were analyzed for cGMP content. cGMP concentrations were determined from each sample using LC-MS/MS.
(§1) Concentration response data were analyzed using a 4-parameter fit (log (agonist) vs. response-variable slope). The EC50 was interpolated from the curve fit and is defined as the concentration at which the compound elicits 50% of its maximal response. When the experiment was carried out multiple times for a given compound, the geometrical mean of all experiments is reported.

Data set [2] concerns sGC enzyme. The data set can be described thus: cGMP GloSensor cell-based assay, 384-well format (HEK293). Further details: species or system human. The conditions noted are these: HEK293 GloSensor 40F cGMP cells, 10 μM DETA-NONOate, geometrical mean; read-out: Glo EC50.
From the text: Human embryonic kidney cells (HEK293) cells expressing GloSensor™ 40F cGMP (Part No: CS182801, Promega) were used to evaluate the activity of test compounds. The luminescent biosensors (engineered luciferase) that were incorporated into these cells detect cGMP formed by the compounds stimulating the sGC enzyme and emit luminescence.
cGMP GloSensor cells were maintained in Dulbecco's Modification of Eagle's Medium (DMEM) supplemented with fetal bovine serum (FBS, 10% final) and hygromycine (200 ug/ml). The day before assay, cells were plated in DMEM with 10% FBS in a 50 μL volume at a density of 1.5×10^4 cells/well in a poly-D-lysine coated 384-well flat white-bottom plate (Corning Cat No 35661). Cells were incubated overnight at 37° C. in a humidified chamber with 5% CO2. The next day, medium was removed and cells were replaced with 40 ul/well of GloSensor™, 2 mM (Promega Cat No E1291). Cells were treated for 90 minutes at 25° C. to allow the substrate to equilibrate in the cells. Test compounds and Diethylenetriamine NONOate (DETA-NONOate) was diluted to 3 mM (20×) in serum-free CO2 independent medium and serially diluted at 4× dilutions to create 5× dose curve from which 10 ul was added to the wells (x μM concentration for test compound solution and 10 μM concentration for DETA-NONOate solution; wherein x is one of the following final concentrations: 30 μM, 7.5 μM, 1.9 μM, 469 nM, 117 nM, 29.3 nM, 7.3 nM, 1.83 nM, 0.46 nM, 0.11 nM, 0.03 nM) For the kinetics studies, luminescense was measured right away for 0.2 sec per well with Envision (Perkin Elmer). For endpoint SAR screening, data were collected after 55 min incubation at room temperature.
as §1

Data set [3] in a line: Rat cerebrospinal fluid (CSF) pharmacokinetics. The format is in vivo. Particulars: male, Sprague-Dawley, rat CSF/unbound plasma. On the procedure: PK in rats was determined following oral dosing. For the oral (PO) experiments, a group of 6 male Sprague-Dawley rats with an indwelling catheter placed in the cisterna magna were used. The PO group was dosed with 3.0, or 10 mg/kg of a compound formulated as a solution in PEG400 or suspension in 0.5% Tween 80 and 0.5% Methylcellulose in water. PO doses were administered by oral gavage and delivered to the stomach using a syringe and gavage tube. Following oral dosage administration, the gavage tube was flushed with approximately 0.5 mL of water to ensure complete delivery of the full dose.
Plasma samples were collected as follows: samples of CSF and blood were collected at 1 hour, 2, and optionally at 4 hours post-dosing. CSF samples (0.05 mL) were collected through the intracisternal catheter. Blood samples (0.25 mL) were collected through tail nick sampling. These samples were kept on ice until processed for plasma. Blood samples were centrifuged at 3200 rpm for 5 minutes at approximately 5° C. within 1 hour of collection. Plasma was directly transferred to individual Eppendorf tubes (0.125 mL). Plug caps were placed on the tubes and the tubes frozen at approximately −70° C. and stored until analysis. Plasma and CSF was collected and analyzed for the presence of a compound.
The compound in question and the internal standard were extracted from plasma by precipitation and from CSF by either precipitation or dilution. Samples were analyzed using liquid chromatography (LC) with tandem mass spectrometric detection (MS/MS) using electrospray ionization. The standard curve ranged from 0.1 to 1000 ng/mL. Results of the compounds described herein in this assay are illustrated in Table G below (for a 10 mg/kg dose and/or 3 mg/kg of the compound). Compound concentrations from several animals were combined to give the geometrical mean at each specific dosage and timepoint.
Kp,uu is defined as the concentration ratio of unbound drug in CSF to unbound drug in plasma. Unbound drug in plasma (or free plasma concentration) is calculated by multiplying the total plasma concentration by the unbound fraction as determined by plasma protein binding. The CSF concentration is then divided by the free plasma concentration to determine the Kp,uu. (See e.g., Di et al., J. Med. Chem., 56, 2-12 (2013))

One may read the EC50 as the concentration giving half of the maximal effect. As to `Oc1nc(-c2cn3ccnc3c(Cc3cccc(F)c3F)n2)ncc1F` [Compound I-4, 2-(8-(2,3-Difluorobenzyl)imidazo[1,2-a]pyrazin-6-yl)-5-fluoropyrimidin-4-ol], the EC50 in data set [1] was at most 100 nM. For the same compound, the EC50 in data set [2] was in the range of 100 to 1000 nM. For the same compound, in data set [3] (PO 3 mg/kg), the Kp uu at 1 h was at most 1, the Kp uu at 2 h was 1 to 2 and the Kp uu at 4 h fell in the range of 1 to 2.
`Oc1nc(-c2cn3ccnc3c(Cc3cc(F)ccc3F)n2)ncc1F` [Compound I-20, 5-fluoro-2-(8-(2,5-difluorobenzyl)imidazo[1,2-a]pyrazin-6-yl)pyrimidin-4-ol]: the EC50 in data set [1] was at most 100 nM. In addition, the 50% effective concentration (EC50) in data set [2] is at most 100 nM. In data set [3] (PO 3 mg/kg), the Kp uu at 1 h fell in the range of 2 to 3, the Kp uu at 2 h fell in the range of 2 to 3 and the Kp uu at 4 h fell in the range of 2 to 3. In addition, in data set [3] (PO 10 mg/kg), the Kp uu at 1 h was in the range of 1 to 2, the Kp uu at 2 h fell in the range of 2 to 3 and the Kp uu at 4 h was 2 to 3.
For `Cc1cc(F)c(Cc2nc(-c3ncc(F)c(O)n3)cn3ncnc23)cc1F` [Compound I-19, 5-Fluoro-2-(8-(2,5-difluoro-4-methylbenzyl)-[1,2,4]triazolo[1,5-a]pyrazin-6-yl)pyrimidin-4-ol], the EC50 in data set [1] was at most 100 nM; in data set [2] it was 100 to 1000 nM.
In the case of `Cc1cc(F)c(Cc2nc(-c3nccc(O)n3)cn3ccnc23)cc1F` [Compound I-15, 2-(8-(2,5-difluoro-4-methylbenzyl)imidazo[1,2-a]pyrazin-6-yl)pyrimidin-4-ol], the half-maximal effective concentration (EC50) in data set [1] and in data set [2] was 100 to 1000 nM each time.
Consider `Cc1cc(F)c(Cc2nc(-c3ncc(F)c(O)n3)cn3ccnc23)cc1F` [Compound I-14, 5-fluoro-2-(8-(2,5-difluoro-4-methylbenzyl)imidazo[1,2-a]pyrazin-6-yl)pyrimidin-4-ol], for which the EC50 in data set [1] and in data set [2] was at most 100 nM throughout. The Kp uu at 1 h in data set [3] (PO 3 mg/kg) and in data set [3] (PO 10 mg/kg) was above 3 in each case. The Kp uu at 2 h in data set [3] (PO 3 mg/kg) and in data set [3] (PO 10 mg/kg) was above 3 each time. Besides, the Kp uu at 4 h in data set [3] (PO 3 mg/kg) is above 3; in data set [3] (PO 10 mg/kg) it was 2 to 3.
For `Oc1nc(-c2cn3ncnc3c(Cc3ccccc3F)n2)ncc1F` [Compound I-23], the EC50 was at most 100 nM in data set [1] and 100 to 1000 nM in data set [2].
With `Oc1nc(-c2cn3c(F)cnc3c(Cc3cc(F)ccc3F)n2)ncc1F` [Compound I-5], the EC50 in data set [1] was at most 100 nM. Further, the EC50 in data set [2] was at most 100 nM. In data set [3] (PO 3 mg/kg), this compound yielded a Kp uu at 1 h of 2 to 3, a Kp uu at 2 h of 2 to 3 and a Kp uu at 4 h of 2 to 3.
Turning to `Oc1nc(-c2cn3ccnc3c(Cc3ccccc3)n2)ncc1F` [Compound I-2, 2-(8-Benzylimidazo[1,2-a]pyrazin-6-yl)-5-fluoropyrimidin-4-ol], the EC50 in data set [1] and in data set [2] was 100 to 1000 nM throughout.
Turning to `Oc1nc(-c2cn3ccnc3c(Cc3cc(F)ccc3F)n2)ncc1Cl` [Compound I-16, 5-chloro-2-(8-(2,5-difluorobenzyl)imidazo[1,2-a]pyrazin-6-yl)pyrimidin-4-ol], in data set [1], the 50% effective concentration (EC50) was at most 100 nM. The EC50 in data set [2] is at most 100 nM. In data set [3] (PO 3 mg/kg), this compound returned a Kp uu at 1 h above 3, a Kp uu at 2 h above 3 and a Kp uu at 4 h above 3.
As to `Oc1nc(-c2cn3ccnc3c(Cc3ccccc3F)n2)ncc1F` [Compound I-21], the EC50 was at most 100 nM in data set [1] and 100 to 1000 nM in data set [2].
Take `Cc1cc(F)c(Cc2nc(-c3ncc(F)c(O)n3)cn3c(F)cnc23)cc1F` [Compound I-18]: the EC50 in data set [2] was at most 100 nM. For the same compound, in data set [3] (PO 3 mg/kg), the Kp uu at 1 h fell in the range of 1 to 2, the Kp uu at 2 h lay within 1 to 2 and the Kp uu at 4 h fell in the range of 1 to 2.
